Measured values reported in article PMC6838683, “Discovery of Human Signaling Systems: Pairing Peptides to G Protein-Coupled Receptors” (Cell, 2019).
Read-outs that look alike come from different tables or passages of the source. Residues, ends and D or L forms follow the SMILES beside them.

Columns and labels:
[1] = biological target: T1, GPR15 (Homo sapiens, UniProt P49685); experiment: cAMP inhibition (Gi/o), HTRF with forskolin; assay type: cell-based; conditions: mean
T1 construct: hIL-2Ra signal peptide (N); expressed in transfected cells
T1 sequence (P49685 2-360 limits assumed): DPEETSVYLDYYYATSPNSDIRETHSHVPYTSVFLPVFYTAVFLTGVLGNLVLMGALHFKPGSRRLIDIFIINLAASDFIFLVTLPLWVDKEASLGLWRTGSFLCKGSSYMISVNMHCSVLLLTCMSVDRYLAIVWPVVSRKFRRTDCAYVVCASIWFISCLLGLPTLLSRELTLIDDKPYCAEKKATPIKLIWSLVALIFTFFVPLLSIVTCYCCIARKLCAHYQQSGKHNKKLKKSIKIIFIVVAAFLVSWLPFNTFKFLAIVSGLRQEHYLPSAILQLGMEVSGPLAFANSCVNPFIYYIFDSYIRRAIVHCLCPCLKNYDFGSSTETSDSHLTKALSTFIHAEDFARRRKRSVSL
Experimental: Peptide-dependent second messenger responses were measured using commercially available HTRF-based IP1 and cAMP kits (Cisbio) as described previously ([Nørskov-Lauritsen et al., 2014]). Receptor expression was induced for 48 hr with 0.1 μg/ml doxycycline in 10 cm dishes. For IP1 measurements (to measure Gq/11), 2,500 cells/well were mixed with ligands in triplicate wells in low volume white 384-well plates at 37°C for 30 min. For cAMP assays, 2,500 cells/well were added in triplicate wells in white 384-well plates in the absence or presence of 3 μM forskolin (to measure Gs and Gi/o activation respectively). 100 μM IBMX was included to prevent cAMP degradation during 30 min stimulation on a plate shaker at room temperature. For both assays, HTRF was measured using an EnVision 2104 Multimode plate reader (PerkinElmer).

[2] = biological target: T2, HA-OGR1 (GPR68) (Homo sapiens, UniProt Q15743); experiment: Ca2+ mobilization assay (Fluo-4); assay type: cell-based; conditions: mean
T2 construct: HA; expressed in transfected cells
Experimental: Peptide-dependent Ca^2+ mobilization responses were measured in HEK293 stable cell lines (HA-OGR1 (GPR68) and vector pcDNA) ([Saxena et al., 2012]) that were seeded in 96-well plates (1 × 10^5 cells/well) and cultured at 37°C with 5% CO2 to near confluence in DMEM with 10% FBS (Corning). Six hours prior to assay, medium was changed to pH 8.0 or pH 7.4 HAM’s F12 Nutrient Mixture (GIBCO) without FBS and transferred to a 37°C incubator without CO2. One hour prior to stimulation, cells were incubated in pH 8.0 or pH 7.4 HBSS with Ca^2+ and Mg^2+ (GIBCO), supplemented with 15 mM HEPES, 2 μM Fluo-4 AM (Invitrogen) and 1.5 mM probenecid ([…] to prevent Fluo-4 efflux) as described previously ([Pera et al., 2018]). Indicated peptides were pipetted using an automated system and emission signal was recorded at 525 nm after excitation at 485 nm using Flex Station III (Molecular Devices). Ca^2+ mobilization responses were determined by subtracting basal fluorescence from the net peak of agonist-induced fluorescence. Ionomycin (1 μM) was used to calculate the maximum Ca^2+ signal to normalize peptide-mediated responses.

[3] = biological target: GPR68 (Homo sapiens, UniProt Q15743); experiment: Real-time receptor internalization (TR-FRET), concentration-response; assay type: cell-based; set-up: hIL-2Ra signal peptide (N); expressed in transfected cells; conditions: GPR68, mean
Experimental: 48 hr prior to parallel assaying, SNAP-tagged oGPCR cells were plated (10,000 cells/well) in fibronectin-coated 384-well Epic biosensor microplates (Corning) and poly-D-lysine coated white 384-well plates (for internalization assays). SNAP- GLP-1 receptor was plated alongside orphan receptor cells as an internal assay control for internalization assays. Receptor-expression was induced with 0.1 μg/ml doxycycline.
A TR-FRET real-time internalization assay was used to examine peptide-dependent changes in orphan receptor localization as described previously ([Foster and Bräuner-Osborne, 2018]). Surface-expressed SNAP-tagged receptors were labeled with a cell-impermeable luminescent terbium cryptate (100 nM SNAP Lumi4-Tb; Cisbio, France) for 1 hr at 37°C. Cells were washed to remove excess terbium and incubated with fluorescein-O-acetic acid (100 μM; Sigma Aldrich) for 5 min at 37°C. Peptides were added as for DMR assays, and internalization responses were recorded for 60 min at 37°C using an EnVision 2104 Multimode plate reader (PerkinElmer). 100 nM GLP-1 was used as a positive control for SNAP-GLP1R internalization. Real-time internalization responses were calculated based on TR-FRET (excitation 340 nm; emission 520 nm and 615 nm), and were expressed as the ratio between donor (terbium) and acceptor (fluorescein) emission. For peptide screening analysis (both DMR and internalization assays), we calculated the area under the curve from the real-time traces. As the magnitude of the responses was variable between orphan receptor targets, particularly for the SNAP-tag based internalization assay where the signal is dependent on receptor surface expression, the AUC values were normalized to their respective plate averages and expressed as fold change. Validation experiments for receptor internalization were performed as above. Internalization data was processed in MS-Excel and area under the curve was used to generate concentration-response curves using GraphPad Prism 7.0. Data represent mean ± standard error of the mean (SEM) from at least 3 biologically independent experiments.

[4] = biological target: T3, MRGPRX2 (Homo sapiens, UniProt Q96LB1); experiment: β-arrestin recruitment (Tango), known peptide receptors; assay type: cell-based; conditions: mean, n = 3
T3 construct: host or cells: HTLA cells (HEK293-derived)
T3 sequence (Q96LB1 1-330): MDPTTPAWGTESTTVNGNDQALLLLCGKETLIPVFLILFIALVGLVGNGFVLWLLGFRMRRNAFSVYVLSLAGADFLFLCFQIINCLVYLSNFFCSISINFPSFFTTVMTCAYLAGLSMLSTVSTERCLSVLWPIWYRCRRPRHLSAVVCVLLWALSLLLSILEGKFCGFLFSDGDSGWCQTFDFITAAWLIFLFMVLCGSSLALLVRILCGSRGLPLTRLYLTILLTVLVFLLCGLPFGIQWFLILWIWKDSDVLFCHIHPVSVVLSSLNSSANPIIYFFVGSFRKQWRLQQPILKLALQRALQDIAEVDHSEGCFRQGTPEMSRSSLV

[5] = biological target: T4, NPY5 (Homo sapiens, UniProt Q15761); experiment: as above; assay type: cell-based; conditions: NPY5R, n = 3; for Comment, Tango (fold over basal): Emax and pEC50 n.d.; for Emax, Tango (fold over basal) / pEC50, Tango (fold over basal): mean
T4 construct: host or cells: HTLA cells (HEK293-derived)
T4 sequence (Q15761 1-445): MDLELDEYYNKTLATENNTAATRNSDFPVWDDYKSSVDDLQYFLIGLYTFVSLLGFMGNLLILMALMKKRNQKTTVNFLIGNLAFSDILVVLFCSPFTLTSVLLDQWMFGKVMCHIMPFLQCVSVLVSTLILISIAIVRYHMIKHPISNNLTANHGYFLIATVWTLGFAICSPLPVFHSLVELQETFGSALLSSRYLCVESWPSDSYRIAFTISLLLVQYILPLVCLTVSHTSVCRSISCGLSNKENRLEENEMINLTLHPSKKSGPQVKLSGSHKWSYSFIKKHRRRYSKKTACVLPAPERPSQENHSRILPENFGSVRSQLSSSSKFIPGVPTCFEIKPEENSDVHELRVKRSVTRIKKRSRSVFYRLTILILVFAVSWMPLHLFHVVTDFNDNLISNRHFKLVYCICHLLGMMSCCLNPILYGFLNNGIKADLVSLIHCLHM
Experimental: (§1) The peptide library was additionally screened against 120 GPCR targets in parallel, including all available orphan receptors and 27 known class A peptide receptors using the Tango assay platform ([Kroeze et al., 2015]). Briefly, HTLA cells (a HEK293 cell line stably expressing a tTA-dependent luciferase reporter and a β-arrestin2-TEV fusion gene) were plated 10,000 cells/well in poly-L-lysine–coated clear-bottom white 384-well plates in DMEM supplemented with 10% FBS, 100 U/ml penicillin and 100 μg/ml streptomycin, 2 μg/ml puromycin and 100 μg/ml hygromycin B. 24 hr later, cells were transfected with Tango GPCR constructs using the calcium phosphate method ([Jordan et al., 1996]). The next day, culture medium was changed to DMEM + 1% dFBS and 10 μM peptides were added for overnight stimulation. Bright-Glo solution (Promega) was incubated for 15–20 min at room temperature, and luminescence was counted using a Trilux luminescence counter (Wallac).
For subsequent peptide validation experiments using Tango assays, HTLA cells were transiently transfected in 10 cm dishes with the receptor of interest using polyethylenimine (PEI) ([Longo et al., 2013]). After 24 hr, 25,000 cells/well were plated in clear bottom, white-walled 384-well plates. Assays were performed as described above, with luminescence measured using an EnSpire 2300 Multimode plate reader (PerkinElmer). Luminescence counts were exported into Excel and were analyzed using GraphPad Prism 7.

[6] = test system: 120 GPCR targets, including all available orphan receptors and 27 known class A peptide receptors; experiment: Peptide library screen, β-arrestin recruitment (Tango, fold change, 10 μM); assay type: cell-based, human; conditions: for Active at: (activity in b-arrestin recruitment assays): Tango, receptor(s) at which the known library peptide was active, among its known GPCR target(s), validated pairings
Experimental: as §1

GPR68, sequence (Q15743 2-365 limits assumed): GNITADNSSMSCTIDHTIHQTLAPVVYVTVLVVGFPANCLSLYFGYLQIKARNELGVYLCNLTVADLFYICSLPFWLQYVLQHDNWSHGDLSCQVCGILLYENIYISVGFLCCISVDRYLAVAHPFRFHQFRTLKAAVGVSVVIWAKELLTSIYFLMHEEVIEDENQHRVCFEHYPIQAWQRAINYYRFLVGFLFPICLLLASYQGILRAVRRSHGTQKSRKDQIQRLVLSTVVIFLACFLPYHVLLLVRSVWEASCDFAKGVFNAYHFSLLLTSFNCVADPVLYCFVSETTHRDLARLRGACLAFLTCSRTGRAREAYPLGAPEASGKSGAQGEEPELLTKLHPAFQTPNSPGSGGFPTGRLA
T2 sequence (Q15743 whole entry): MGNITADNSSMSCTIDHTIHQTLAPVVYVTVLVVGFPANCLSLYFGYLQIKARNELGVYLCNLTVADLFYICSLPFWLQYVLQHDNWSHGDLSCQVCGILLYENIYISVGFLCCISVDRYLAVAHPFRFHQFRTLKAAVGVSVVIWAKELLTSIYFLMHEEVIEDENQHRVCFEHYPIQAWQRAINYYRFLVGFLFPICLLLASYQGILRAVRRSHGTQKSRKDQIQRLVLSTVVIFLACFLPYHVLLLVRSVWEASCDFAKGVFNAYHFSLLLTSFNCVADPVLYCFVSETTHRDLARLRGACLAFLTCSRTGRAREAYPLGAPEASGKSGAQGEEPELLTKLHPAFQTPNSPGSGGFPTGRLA

For `CC(C)C[C@H](NC(=O)[C@H](C)NC(=O)CNC(=O)[C@@H]1CCCN1C(=O)[C@@H](NC(=O)[C@@H](NC(=O)[C@H](Cc1c[nH]c2ccccc12)NC(=O)[C@@H](N)CC(C)C)C(C)C)C(C)C)C(=O)N1CCC[C@H]1C(=O)N[C@@H](CCC(N)=O)C(=O)N[C@H](C(=O)O)C(C)C` [64 resynthesized] (H-LWVVPGALPQV-OH), the Emax ([1]; receptor GPR15, SEM and n (4), read-out: cAMP accumulation assays Emax (% FSK)) was 30.8%.
`CC[C@H](C)[C@H](NC(=O)[C@H](CCCNC(=N)N)NC(=O)[C@H](CC(=O)O)NC(=O)[C@H](CCSC)NC(=O)[C@@H]1CCCN1C(=O)[C@@H](NC(=O)CNC(=O)[C@H](Cc1ccccc1)NC(=O)[C@@H](N)CCCNC(=N)N)[C@@H](C)CC)C(=O)NCC(=O)N[C@@H](CCCNC(=N)N)C(=O)N[C@@H](CC(N)=O)C(=O)N[C@@H](CCCNC(=N)N)C(=O)N[C@@H](CC(C)C)C(=O)N[C@@H](CO)C(=O)N[C@@H](CC(N)=O)C(=O)N[C@@H](CO)C(=O)N[C@@H](CCCNC(=N)N)C(=O)NCC(=O)O` [128 resynthesized] (H-RFGIPMDRIGRNRLSNSRG-OH) showed an Emax ([2]; receptor GPR68, SEM and n (3), read-out: Calcium mobilization assays Emax (% ionomycin)) of 34.5%.
Molecule `CC(C)C[C@H](NC(=O)[C@H](C)NC(=O)CNC(=O)[C@@H]1CCCN1C(=O)[C@@H](NC(=O)[C@@H](NC(=O)[C@H](Cc1c[nH]c2ccccc12)NC(=O)[C@@H](N)CC(C)C)C(C)C)C(C)C)C(=O)N1CCC[C@H]1C(=O)N[C@@H](CCC(N)=O)C(=O)N[C@H](C(=O)O)C(C)C` [GPR15L_(47-57)] (H-LWVVPGALPQV-OH) has an Emax ([1]; GPR15, SEM and n, read-out: Emax, cAMP (% FSK)) of 29.2%.
`CC[C@H](C)[C@H](NC(=O)[C@H](CCCNC(=N)N)NC(=O)[C@H](CC(=O)O)NC(=O)[C@H](CCSC)NC(=O)[C@@H]1CCCN1C(=O)[C@@H](NC(=O)CNC(=O)[C@H](Cc1ccccc1)NC(=O)[C@@H](N)CCCNC(=N)N)[C@@H](C)CC)C(=O)NCC(=O)N[C@@H](CCCNC(=N)N)C(=O)N[C@@H](CC(N)=O)C(=O)N[C@@H](CCCNC(=N)N)C(=O)N[C@@H](CC(C)C)C(=O)N[C@@H](CO)C(=O)N[C@@H](CC(N)=O)C(=O)N[C@@H](CO)C(=O)N[C@@H](CCCNC(=N)N)C(=O)NCC(=O)O` [Osteocrin_(33-50)] (H-RFGIPMDRIGRNRLSNSRG-OH) was tested, and the Emax ([2]; GPR68, data from resynthesized peptide, SEM and n, read-out: Emax, Ca2+ mobilization (% iono)) was 34.5% and the “pEC50, Internalization (AUC)” value ([3]; SEM and n) was “Response >1uM”.
For “ATVRNEDKWKPLNNPRNRDLFFRRLQAYFK [Peptide 175]”, the “Emax, Tango (fold over basal)” value [4] was 3.5 fold over basal and the “pEC50, Tango (fold over basal)” value [4] was 4.67.
FLWKDLQRVR [Peptide 56] was tested, and the “Emax, Tango (fold over basal)” value [4] was 4.9 fold over basal and the “pEC50, Tango (fold over basal)” value [4] was 4.90.
In the case of IQAQLKELRY [Peptide 49], the “Comment, Tango (fold over basal)” value [5] is reported as “Response >1uM”.
MPHSFANLPLRF [Peptide 86] was tested, and the “Emax, Tango (fold over basal)” value [5] was 10.4 fold over basal, the “pEC50, Tango (fold over basal)” value [5] was 5.44 and the “Active at: (activity in b-arrestin recruitment assays)” value [6] was “NPFF1”.
With QMAVKKYLAAVL [Peptide 84] the “Emax, Tango (fold over basal)” value [4] was 7.0 fold over basal and the “pEC50, Tango (fold over basal)” value [4] was 5.02.
In the case of RFGIPMDRIGRNRLSNSR [Peptide 128.1], the “Internalization assays Emax (AUC)” value ([3]; real-time internalization, SEM and n (3)) is reported as 2.0.
In the case of SQAFLFQPQRF [Peptide 75], the “Comment, Tango (fold over basal)” value [5] is reported as “Response >1uM” and the “Active at: (activity in b-arrestin recruitment assays)” value [6] is reported as “NPFF1”.
In the case of “SRTHRHSMEIRTPDINPAWYASRGIRPVGRF [Peptide 183]”, the “Emax, Tango (fold over basal)” value [5] is reported as 6.6 fold over basal, the “pEC50, Tango (fold over basal)” value [5] is reported as 5.60 and the “Active at: (activity in b-arrestin recruitment assays)” value [6] is reported as “PrRP”. The “Confirmation of known target in Tango” value ([6]; repeat hitters of the peptide library screen, the value names the known receptor(s) confirmed in the β-arrestin recruitment (Tango) screen) was “PrRP”.
In the case of VPNLPGRF [Peptide 36], the “Comment, Tango (fold over basal)” value [5] is reported as “Response >1uM”.
For WYKHVASPRYHTVGRAAGLLMGL [Peptide 151], the “Active at: (activity in b-arrestin recruitment assays)” value [6] was “NPBW1, NPBW2”, the “Emax, Tango (fold over basal)” value [4] was 3.4 fold over basal and the “pEC50, Tango (fold over basal)” value [4] was 4.73.
